Test results as given in ChEMBL document CHEMBL1123898, “Antitumor imidazotetrazines. 14. Synthesis and antitumor activity of 6- and 8-substituted imidazo[5,1-d]-1,2,3,5-tetrazinones and 8-substituted pyrazolo[5,1-d]-1,2,3,5-tetrazinones” (1987).

Columns and labels:
L1210 [1] = assay: Antitumor activity was assessed against L1210 tumors in B6D2F1 mouse by inoculation of 10e5 tumor cells through intravenous route and mean death of animals (treated/control) was reported at 100 mg/kg peroral dose; assay type: functional; settings: route oral
L1210 [2] = assay: Antitumor activity was assessed against L1210 tumors in B6D2F1 mouse by inoculation of 10e5 tumor cells through intravenous route and mean death of animals (treated/control) was reported at 200 mg/kg peroral dose; assay type: functional; settings: route oral
L1210 [3] = assay: Antitumor activity was assessed against L1210 tumors in B6D2F1 mouse by inoculation of 10e5 tumor cells through intravenous route and mean death of animals (treated/control) was reported at 50 mg/kg peroral dose; assay type: functional; settings: route oral
L1210 [4] = assay: Antitumor activity was assessed against L1210 tumors in B6D2F1 mouse by inoculation of 10e5 tumor cells through intravenous route and number of Survivors to duration was reported at 10 mg/kg peroral dose; 2/10; assay type: functional; settings: route oral
L1210 [5] = assay: Antitumor activity was assessed against L1210 tumors in B6D2F1 mouse by inoculation of 10e5 tumor cells through ip route and mean death of animals (treated/control) was reported at 10 mg/kg peroral dose; assay type: functional; settings: route oral
L1210 [6] = assay: Antitumor activity was assessed against L1210 tumors in B6D2F1 mouse by inoculation of 10e5 tumor cells through ip route and mean death of animals (treated/control) was reported at 20 mg/kg peroral dose; assay type: functional; settings: route oral
L1210 [7] = assay: Antitumor activity was assessed against L1210 tumors in B6D2F1 mouse by inoculation of 10e5 tumor cells through ip route and mean death of animals (treated/control) was reported at 40 mg/kg peroral dose; assay type: functional; settings: route oral
[8] = Antitumor activity was assessed against TLX5 tumors in CBA/CA mouse by inoculation of 2 x 10e5 tumor cells through subcutaneous route and number of Survivors to duration was reported at 20 mg/kg iv dose; 1/5; assay type: functional
[9] = Antitumor activity was assessed against TLX5 tumors in CBA/CA mouse by inoculation of 2 x 10e5 tumor cells through subcutaneous route and number of Survivors to duration was reported at 40 mg/kg iv dose; 5/5; assay type: functional
[10] = Antitumor activity was assessed against TLX5 tumors in CBA/CA mouse by inoculation of 2 x 10e5 tumor cells through subcutaneous route and mean death of animals (treated/control) was reported at 80 mg/kg iv dose; assay type: functional
[11] = Antitumor activity was assessed against TLX5 tumors in CBA/CA mouse by inoculation of 2 x 10e5 tumor cells through subcutaneous route and mean death of animals (treated/control) was reported at 10 mg/kg iv dose; assay type: functional
[12] = Antitumor activity was assessed against TLX5 tumors in CBA/CA mouse by inoculation of 2 x 10e5 tumor cells through subcutaneous route and mean death of animals (treated/control) was reported at 20 mg/kg dose; assay type: functional
[13] = Antitumor activity was assessed against TLX5 tumors in CBA/CA mouse by inoculation of 2 x 10e5 tumor cells through subcutaneous route and mean death of animals (treated/control) was reported at 40 mg/kg iv dose; assay type: functional
[14] = Antitumor activity was assessed against TLX5 tumors in CBA/CA mouse by inoculation of 2 x 10e5 tumor cells through subcutaneous route and mean death of animals (treated/control) was reported at 5 mg/kg dose; assay type: functional
L1210 [15] = assay: Antitumor activity was assessed against L1210 tumors in B6D2F1 mouse by inoculation of 10e5 tumor cells through intraperitoneal route and number of Survivors to duration was reported at 40 mg/kg peroral dose; 2/10; settings: route oral
L1210 [16] = assay: Antitumor activity was assessed against L1210 tumors in B6D2F1 mouse by inoculation of 10e5 tumor cells through intraperitoneal route and number of Survivors to duration was reported at 20 mg/kg peroral dose; 10/10; settings: route oral
L1210 [17] = assay: Antitumor activity was assessed against L1210 tumors in B6D2F1 mouse by inoculation of 10e5 tumor cells through iv route and mean death of animals (treated/control) was reported at 40 mg/kg po dose; assay type: functional
L1210 [18] = assay: Antitumor activity was assessed against L1210 tumors in B6D2F1 mouse by inoculation of 10e5 tumor cells through iv route and mean death of animals (treated/control) was reported at 80 mg/kg po dose; assay type: functional
L1210 [19] = assay: Antitumor activity was assessed against L1210 tumors in B6D2F1 mouse by inoculation of 10e5 tumor cells through iv route and mean death of animals (treated/control) was reported at 10 mg/kg po dose; assay type: functional
L1210 [20] = assay: Antitumor activity was assessed against L1210 tumors in B6D2F1 mouse by inoculation of 10e5 tumor cells through iv route and mean death of animals (treated/control) was reported at 160 mg/kg po dose; assay type: functional
[21] = Antitumor activity was assessed against TLX5 tumors in CBA/CA mouse by inoculation of 2 x 10e5 tumor cells through sc route and mean death of animals (treated/control) was reported at 160 mg/kg dose; assay type: functional; settings: route subcutaneous
[22] = Antitumor activity was assessed against TLX5 tumors in CBA/CA mouse by inoculation of 2 x 10e5 tumor cells through sc route and mean death of animals (treated/control) was reported at 20 mg/kg dose; assay type: functional; settings: route subcutaneous
[23] = Antitumor activity was assessed against TLX5 tumors in CBA/CA mouse by inoculation of 2 x 10e5 tumor cells through sc route and mean death of animals (treated/control) was reported at 320 mg/kg dose; assay type: functional; settings: route subcutaneous
[24] = Antitumor activity was assessed against TLX5 tumors in CBA/CA mouse by inoculation of 2 x 10e5 tumor cells through sc route and mean death of animals (treated/control) was reported at 40 mg/kg dose; assay type: functional; settings: route subcutaneous
[25] = Antitumor activity was assessed against TLX5 tumors in CBA/CA mouse by inoculation of 2 x 10e5 tumor cells through sc route and mean death of animals (treated/control) was reported at 80 mg/kg dose; assay type: functional; settings: route subcutaneous
[26] = Antitumor activity was assessed against TLX5 tumors in CBA/CA mouse by inoculation of 2 x 10e5 tumor cells through sc route and number of survivors to duration was reported at 40 mg/kg ip dose; 2/5; assay type: functional; settings: route subcutaneous
[27] = Antitumor activity was assessed against TLX5 tumors in CBA/CA mouse by inoculation of 2 x 10e5 tumor cells through sc route and number of survivors to duration was reported at 80 mg/kg ip dose; 5/5; assay type: functional; settings: route subcutaneous
L1210 [28] = assay: Antitumor activity was assessed against L1210 tumors in B6D2F1 mouse by inoculation of 10e5 tumor cells through iv route and number of Survivors to duration was reported at 40 mg/kg po dose; 7/7; assay type: functional
L1210 [29] = assay: Antitumor activity was assessed against L1210 tumors in B6D2F1 mouse by inoculation of 10e5 tumor cells through iv route and mean death of animals (treated/control) was reported at 20 mg/kg po dose; assay type: functional
[30] = Antitumor activity was assessed against TLX5 tumors in CBA/CA mouse by inoculation of 2 x 10e5 tumor cells through sc route and number of survivors was reported at 20 mg/kg ip dose; 3/5; assay type: functional; settings: route subcutaneous
[31] = Antitumor activity was assessed against TLX5 tumors in CBA/CA mouse by inoculation of 2 x 10e5 tumor cells through sc route and number of survivors was reported at 40 mg/kg ip dose; 3/5; assay type: functional; settings: route subcutaneous
[32] = Antitumor activity was assessed against TLX5 tumors in CBA/CA mouse by inoculation of 2 x 10e5 tumor cells through subcutaneous route and mean death of animals (treated/control) was reported at 10 mg/kg ip dose; assay type: functional
[33] = Antitumor activity was assessed against TLX5 tumors in CBA/CA mouse by inoculation of 2 x 10e5 tumor cells through subcutaneous route and mean death of animals (treated/control) was reported at 160 mg/kg dose; assay type: functional
[34] = Antitumor activity was assessed against TLX5 tumors in CBA/CA mouse by inoculation of 2 x 10e5 tumor cells through subcutaneous route and mean death of animals (treated/control) was reported at 20 mg/kg ip dose; assay type: functional
[35] = Antitumor activity was assessed against TLX5 tumors in CBA/CA mouse by inoculation of 2 x 10e5 tumor cells through subcutaneous route and mean death of animals (treated/control) was reported at 40 mg/kg dose; assay type: functional
[36] = Antitumor activity was assessed against TLX5 tumors in CBA/CA mouse by inoculation of 2 x 10e5 tumor cells through subcutaneous route and mean death of animals (treated/control) was reported at 80 mg/kg dose; assay type: functional
L1210 [37] = assay: Antitumor activity was assessed against L1210 tumors in B6D2F1 mouse by inoculation of 10e5 tumor cells through iv route and mean death of animals (treated/control) was reported at 50 mg/kg po dose; assay type: functional
L1210 [38] = assay: Antitumor activity was assessed against L1210 tumors in B6D2F1 mouse by inoculation of 10e5 tumor cells through iv route and mean death of animals (treated/control) was reported at 100 mg/kg po dose; assay type: functional
L1210 [39] = assay: Antitumor activity was assessed against L1210 tumors in B6D2F1 mouse by inoculation of 10e5 tumor cells through iv route and mean death of animals (treated/control) was reported at 200 mg/kg po dose; assay type: functional

NC(=O)c1nc(Cc2ccccc2)n2c(=O)n(CCCl)nnc12
T/C (L1210 [1]): 114%
T/C (L1210 [2]): 127%
T/C (L1210 [3]): 105%

CNC(=O)c1ncn2c(=O)n(CCCl)nnc12
Survivors (L1210 [4]): 2
T/C (L1210 [5]): >192%
T/C (L1210 [6]): >453%
T/C (L1210 [7]): >215%
Survivors [8]: 1
Survivors [9]: 5
T/C [10]: 72%
T/C [11]: 133%
T/C [12]: >254%
T/C [13]: >555%
T/C [14]: 104%
Survivors (L1210 [15]): 2
Survivors (L1210 [16]): 10

Cc1nc(C(N)=O)c2nnn(CCCl)c(=O)n12
T/C (L1210 [17]): 180%
T/C (L1210 [18]): 248%
T/C (L1210 [19]): 128%
T/C (L1210 [20]): 267%
T/C [21]: 80%
T/C [22]: 176%
T/C [23]: 66%
T/C [24]: >343%
T/C [25]: >550%
Survivors [26]: 2
Survivors [27]: 5

O=c1n(CCCl)nnc2c([N+](=O)[O-])ncn12
T/C (L1210 [1]): 98%
T/C (L1210 [2]): 98%
T/C (L1210 [3]): 98%

CN(C(=O)c1ncn2c(=O)n(CCCl)nnc12)c1ccccc1
T/C (L1210 [1]): 100%
T/C (L1210 [2]): 100%
T/C (L1210 [3]): 100%

CN(C)S(=O)(=O)c1ncn2c(=O)n(CCCl)nnc12
Survivors (L1210 [28]): 7
T/C (L1210 [29]): 222%
T/C (L1210 [17]): >750%
T/C (L1210 [19]): 152%
T/C [22]: >385%
T/C [24]: >381%
T/C [25]: 68%
Survivors [30]: 3
Survivors [31]: 3

NC(=O)c1nc(C2CCCCC2)n2c(=O)n(CCCl)nnc12
T/C (L1210 [1]): 86%
T/C (L1210 [2]): 90%
T/C (L1210 [3]): 94%

CCc1nc(C(N)=O)c2nnn(CCCl)c(=O)n12
T/C (L1210 [29]): 145%
T/C (L1210 [17]): 212%
T/C (L1210 [19]): 105%

N#Cc1ncn2c(=O)n(CCCl)nnc12
T/C [32]: 96%
T/C [33]: 80%
T/C [34]: 102%
T/C [35]: 102%
T/C [36]: 104%

CC(C)c1nc(C(N)=O)c2nnn(CCCl)c(=O)n12
T/C (L1210 [37]): 100%
T/C (L1210 [38]): 104%
T/C (L1210 [39]): 137%

CCCCc1nc(C(N)=O)c2nnn(CCCl)c(=O)n12
T/C (L1210 [17]): 100%
T/C (L1210 [18]): 113%
T/C (L1210 [20]): 147%

O=c1n(CCCl)nnc2c(-c3ccccc3)ncn12
T/C (L1210 [1]): 100%
T/C (L1210 [2]): 100%
T/C (L1210 [3]): 100%

COc1ccc(CNS(=O)(=O)c2ncn3c(=O)n(CCCl)nnc23)cc1
T/C [21]: 123%
T/C [22]: 113%
T/C [23]: 109%
T/C [25]: 151%

O=c1n(CCCl)nnc2c([N+](=O)[O-])cnn12
T/C (L1210 [1]): 100%
T/C (L1210 [2]): 101%
T/C (L1210 [3]): 101%
